Data as given in patent US8957017B2, “Dipeptoid prodrugs and their use” (Bayer Intellectual Property GmbH, priority 2007, dated 2015).
Counter-ions that a name gives are not always drawn.

What was measured:
[1] = Oral pharmacokinetics in Wistar rats; assay type: in vivo; settings: after oral administration by gavage, male Wistar rats
Procedure: e) Oral Pharmacokinetics in Wistar Rats:
(§1) On the day before administration of the substance, a catheter for obtaining blood is implanted in the jugular vein of the experimental animals (male Wistar rats, body weight 200-250 g) under Isofluran® anesthesia.
(§2) On the day of the experiment, a defined dose of the test substance is administered as solution into the stomach by gavage. Blood samples (8-12 time points) are taken through the catheter sequentially over the course of 24 h after administration of the substance. Plasma is obtained by centrifuging the samples in heparinized tubes. Acetonitrile is added to a defined plasma volume per time point to precipitate proteins. After centrifugation, test substance and, where appropriate, known cleavage products of the test substance in the supernatant are determined quantitatively using a suitable LC/MS-MS method.
The measured plasma concentrations are used to calculate pharmacokinetic parameters of the test substance and of the active ingredient compound (A) liberated therefrom, such as AUC, Cmax, T1/2 (half-life).

[2] = Determination of the solubility in 5% strength aqueous dextrose solution; assay type: physicochemical; settings: saline or isotonic, thermodynamic from solid, room temperature, 24 h
Procedure: a) Determination of the Solubility:
The test substance is suspended in 5% strength aqueous dextrose solution. This suspension is shaken at room temperature for 24 h. After ultracentrifugation at 224 000 g for 30 min, the supernatant is diluted with DMSO and analysed by HPLC. A two-point calibration plot of the test compound in DMSO is used for quantification.
Agilent 1100 with DAD (G1315A), quat. Pump (G1311A), autosampler CTC HTS PAL, degasser (G1322A) and column thermostat (G1316A); column: Phenomenex Gemini C18, 5 μm, 50 mm×2 mm; temperature: 40° C.; eluent A: water/phosphoric acid pH 2, eluent B: acetonitrile; flow rate: 0.7 ml/min; gradient: 0-0.5 min 85% A, 15% B; ramp 0.5-3 min 10% A, 90% B; 3-3.5 min 10% A, 90% B; ramp 3.5-4 min 85% A, 15% B; 4-5 min 85% A, 15% B.
Agilent 1100 with DAD (G1315A), quat. pump (G1311A), autosampler CTC HTS PAL, degasser (G1322A) and column thermostat (G1316A); column: VDSoptilab Kromasil 100 C18, 3.5 μm, 60 mm×2.1 mm; temperature: 30° C.; eluent A: water+5 ml of perchloric acid/liter, eluent B: acetonitrile; flow rate: 0.75 ml/min; gradient: 0-0.5 min 98% A, 2% B; ramp 0.5-4.5 min 10% A, 90% B; 4.5-6 min 10% A, 90% B; ramp 6.5-6.7 min 98% A, 2% B; 6.7-7.5 min 98% A, 2% B.

[3] = Stability in buffer at various pH values; assay type: physicochemical
Procedure: b) Stability in Buffer at Various pH Values:
0.3 mg of the test substance is weighed into a 2 ml HPLC vial and 0.5 ml of acetonitrile or acetonitrile/DMSO (9:1) is added. The substance is dissolved by putting the sample vessel in an ultrasonic bath for about 10 seconds. Then 0.5 ml of the respective buffer solution is added, and the sample is again treated in the ultrasonic bath.
pH 2: 0.03 mol of citric acid, 0.061 mol of sodium chloride and 0.0082 mol of hydrochoric acid ad 1 liter of water;
pH 4: 1 liter of Millipore water is adjusted to pH 4.0 with 1 N hydrochloric acid;
pH 5: 0.096 mol of citric acid and 0.2 mol of sodium hydroxide ad 1 liter of water;
pH 6: 0.06 mol of citric acid and 0.16 mol of sodium hydroxide ad 1 liter of water;
pH 7.4: 90.0 g of sodium chloride, 13.61 g of potassium dihydrogen phosphate and 83.35 g of 1 N sodium hydroxide solution are made up to 1 liter with water; this solution is then further diluted 1:10 with Millipore water.
pH 8: 0.013 mol of borax and 0.021 mol of hydrochloric acid ad 1 liter of water.
5 μl portions of the test solution are analyzed by HPLC for their content of unchanged test substance, and of parent substance (A) produced, every hour over a period of 24 hours at 37° C. The percentage areas of the appropriate peaks are used for quantification.
The ratios of the peak areas (F) at the respective time points in relation to the peak areas at the starting time are shown in Table 2 for representative exemplary embodiments: […]

[4] = test system: heart rate of anesthetized rats; assay: Influence on the heart rate of anesthetized rats; assay type: in vivo; settings: maximum decrease in the first 30 min after i.v. bolus of 100 μg/kg of (A) or equivalent dosages; anesthetized male Wistar rats
Procedure: f) Determination of the Influence on the Heart Rate of Anesthetized Rats:
Male Wistar rats with a body weight above 250 g are employed. In the night before the experiment, the animals receive no feed but still have free access to drinking water. Preparation and investigations are carried out under Trapanal® anesthesia (100 mg/kg i.p.). Injection and infusion take place through a catheter in the jugular vein, and the blood pressure is recorded via a catheter in the femoral artery (transducer: Braun, Melsungen). After the preparation, the animals are connected to a continuous infusion of physiological saline solution to compensate fluid losses. Test substance or placebo solution are administered as bolus after an equilibration time of about 1 h. Heart rate and arterial blood pressure are recorded during the equilibration and over a period of at least 30 min after the bolus injection with the aid of a digital evaluation program.
Table 4 lists the maximum heart rate decrease in the first 30 min after an i.v. bolus of 100 μg/kg of the active substance (A) or of equivalent dosages of representative exemplary embodiments: […]

[5] = i.v. pharmacokinetics in Wistar rats; assay type: in vivo; settings: after i.v. bolus administration, male Wistar rats
Procedure: d) i.v. Pharmacokinetics in Wistar Rats:
as §1
as §2, with “tail vein using a Hamilton® glass syringe (bolus administration, duration of administration <10 s).” for “stomach by gavage.”
The measured plasma concentrations are used to calculate pharmacokinetic parameters of the test substance and of the active ingredient compound (A) liberated therefrom, such as AUC, Cmax, T1/2 (half-life) and CL (clearance).

Structure (SMILES) | detectability of test substance in plasma [1] | solubility thermodynamic at 24 h [2] | % test substance after 4 h [F(t = 4 h) × 100/F(t = 0 h)] ([3]; pH 4, 37° C.) | % test substance after 24 h [F(t = 24 h) × 100/F(t = 0 h)] ([3]; pH 4, 37° C.) | % test substance after 4 h [F(t = 4 h) × 100/F(t = 0 h)] ([3]; pH 5, 37° C.) | % test substance after 24 h [F(t = 24 h) × 100/F(t = 0 h)] ([3]; pH 5, 37° C.) | % test substance after 4 h [F(t = 4 h) × 100/F(t = 0 h)] ([3]; pH 6, 37° C.) | % test substance after 24 h [F(t = 24 h) × 100/F(t = 0 h)] ([3]; pH 6, 37° C.) | % test substance after 4 h [F(t = 4 h) × 100/F(t = 0 h)] ([3]; pH 7.4, 37° C.) | % test substance after 24 h [F(t = 24 h) × 100/F(t = 0 h)] ([3]; pH 7.4, 37° C.) | Heart rate decrease [4] | detectability of test substance in plasma [5] | % test substance after 4 h [F(t = 4 h) × 100/F(t = 0 h)] ([3]; pH 8, 37° C.) | % test substance after 24 h [F(t = 24 h) × 100/F(t = 0 h)] ([3]; pH 8, 37° C.) | % test substance after 4 h [F(t = 4 h) × 100/F(t = 0 h)] ([3]; pH 2, 37° C.) | % test substance after 24 h [F(t = 24 h) × 100/F(t = 0 h)] ([3]; pH 2, 37° C.)
C[C@H](NC(=O)[C@@H](N)CCCCN)C(=O)OCCOc1ccc(-c2c(C#N)c(N)nc(SCc3csc(-c4ccc(Cl)cc4)n3)c2C#N)cc1 [Example 4, 2-{4-[2-Amino-6-({[2-(4-chlorophenyl)-1,3-thiazol-4-yl]methyl}thio)-3,5-dicyanopyridin-4-yl]-phenoxy}ethyl L-lysyl-L-alaninate dihydrochloride] | no longer detectable in plasma even at the first measurement point | > 500 µg/mL | 100% | 100% | 100% | 98% | 97% | 84% | 48% | 2% | 19% | no longer detectable in plasma even at the first measurement point |  |  |  | 
N#Cc1c(N)nc(SCc2csc(-c3ccc(Cl)cc3)n2)c(C#N)c1-c1ccc(OCCOC(=O)[C@@H](N)CCC(=O)NCCN)cc1 [Example 7, dihydrochloride] |  | 100 µg/mL | 100% | 98% |  |  |  |  | 51% | 2% | 15% | no longer detectable in plasma even at the first measurement point |  |  |  | 
CC(C)[C@H](NC(=O)[C@@H](N)CCCCN)C(=O)OCCOc1ccc(-c2c(C#N)c(N)nc(SCc3csc(-c4ccc(Cl)cc4)n3)c2C#N)cc1 [Example 1, 2-{4-[2-Amino-6-({[2-(4-chlorophenyl)-1,3-thiazol-4-yl]methyl}thio)-3,5-dicyanopyridin-4-yl]-phenoxy}ethyl L-lysyl-L-valinate dihydrochloride] |  | > 500 µg/mL | 100% | 100% |  |  | 100% | 100% | 99% | 96% | 10% |  | 99% | 90% |  | 
N#Cc1c(N)nc(SCc2csc(-c3ccc(Cl)cc3)n2)c(C#N)c1-c1ccc(OCCOC(=O)CC[C@H](N)C(=O)NCCN)cc1 [Example 6, 2-{4-[2-Amino-6-({[2-(4-chlorophenyl)-1,3-thiazol-4-yl]methyl}thio)-3,5-dicyanopyridin-4-yl]-phenoxy}ethyl N-(2-aminoethyl)-L-α-glutaminate dihydrochloride] | no longer detectable in plasma even at the first measurement point | > 500 µg/mL | 100% | 100% | 96% | 80% | 78% | 25% | 8% | 0% | 17% | no longer detectable in plasma even at the first measurement point |  |  | 100% | 100%
N#Cc1c(N)nc(SCc2csc(-c3ccc(Cl)cc3)n2)c(C#N)c1-c1ccc(OCCOC(=O)[C@H](CO)NC(=O)[C@@H](N)CCCCN)cc1 [Example 5, 2-{4-[2-Amino-6-({[2-(4-chlorophenyl)-1,3-thiazol-4-yl]methyl}thio)-3,5-dicyanopyridin-4-yl]-phenoxy}ethyl L-lysyl-L-serinate dihydrochloride] | no longer detectable in plasma even at the first measurement point | > 500 µg/mL | 100% | 100% | 100% | 98% | 95% | 70% |  |  | 12% | no longer detectable in plasma even at the first measurement point |  |  |  | 
